According to ChEMBL document CHEMBL1201862, “PubChem BioAssay data set” (2004):
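Step 1: Grow cells in 96-well plates. Step 2: Expose to compound for 48 hours at 5 concentrations. Step 3: Interpolate endpoints linearly; if unreached, use highest concentration. Here, GI50 denotes the concentration required for 50% inhibition of growth.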 Active and inactive are the calls of the source. Cut-off read from the data, not from the text of the source: active = GI50 up to about 1.1 µM and inactive = higher.

Tests used:
Test in all cases: NCI tumour cell line growth inhibition, 48 h
RPMI-8226 = system: RPMI-8226
EKVX = system: EKVX
SK-MEL-28 = system: SK-MEL-28
NCI-H460 = system: NCI-H460
MCF7 = system: MCF7
Hs-578T = system: Hs-578T
BT-549 = system: BT-549
NCI/ADR-RES = system: NCI/ADR-RES
MDA-MB-231 = system: MDA-MB-231
RXF 393 = system: RXF 393
SW-620 = system: SW-620
SNB-19 = system: SNB-19
Malme-3M = system: Malme-3M
OVCAR-4 = system: OVCAR-4
HOP-92 = system: HOP-92
MDA-N = system: MDA-N
NCI-H226 = system: NCI-H226
NCI-H522 = system: NCI-H522
CCRF-CEM = system: CCRF-CEM
MOLT-4 = system: MOLT-4

| SMILES | GI50 (RPMI-8226) | GI50 (EKVX) | GI50 (SK-MEL-28) | GI50 (NCI-H460) | GI50 (MCF7) | GI50 (Hs-578T) | GI50 (BT-549) | GI50 (NCI/ADR-RES) | GI50 (MDA-MB-231) | GI50 (RXF 393) | GI50 (SW-620) | GI50 (SNB-19) | GI50 (Malme-3M) | GI50 (OVCAR-4) | GI50 (HOP-92) | GI50 (MDA-N) | GI50 (NCI-H226) | GI50 (NCI-H522) | GI50 (CCRF-CEM) | GI50 (MOLT-4) |
| --- | --- | --- | --- | --- | --- | --- | --- | --- | --- | --- | --- | --- | --- | --- | --- | --- | --- | --- | --- | --- |
| Cc1ccc2nc(N/N=C/c3cccc(C)n3)cc(C)c2c1 | 14 µM (inactive) | 16.6 µM (inactive) | 17.1 µM (inactive) | 6.89 µM (inactive) | 13.6 µM (inactive) | 23.8 µM (inactive) | 18.8 µM (inactive) | 16.2 µM (inactive) | 18.6 µM (inactive) | 16.5 µM (inactive) | 17.1 µM (inactive) | 20.5 µM (inactive) | 16 µM (inactive) | 16.6 µM (inactive) | 17.6 µM (inactive) | 16.3 µM (inactive) | 24.7 µM (inactive) | 17.6 µM (inactive) |  |  |
| c1ccc(-c2nnn(CCN3CCCCC3)n2)cc1 | > 100 µM (inactive) | 96.6 µM (inactive) | > 100 µM (inactive) | > 100 µM (inactive) | > 100 µM (inactive) | > 100 µM (inactive) | > 100 µM (inactive) | > 100 µM (inactive) | > 100 µM (inactive) | > 100 µM (inactive) | > 100 µM (inactive) | > 100 µM (inactive) | > 100 µM (inactive) | > 100 µM (inactive) | > 100 µM (inactive) | > 100 µM (inactive) | > 100 µM (inactive) | > 100 µM (inactive) | > 100 µM (inactive) |  |
| CCOC(=O)c1cccc(NC(=O)CI)c1 | 0.721 µM (active) | 1.93 µM (inactive) | 2.2 µM (inactive) | 1.2 µM (inactive) | 0.394 µM (active) | 2.34 µM (inactive) | 0.381 µM (active) | 0.5 µM (active) | 1.31 µM (inactive) | 1.36 µM (inactive) | 0.207 µM (active) | 3.54 µM (inactive) | 1.21 µM (inactive) | 0.5 µM (active) | 1.07 µM (active) | 0.211 µM (active) | 0.601 µM (active) | 0.179 µM (active) | 0.0239 µM (active) | 0.0284 µM (active) |
| Cn1c(CCC2(C)Cc3ccccc3C(=O)O2)cc2ccccc2c1=O (stereo not drawn) | 17.3 µM (inactive) |  | 28.8 µM (inactive) | 24.8 µM (inactive) | 24.2 µM (inactive) | 37.7 µM (inactive) | 21.8 µM (inactive) | 26.3 µM (inactive) | 45.1 µM (inactive) | 10.2 µM (inactive) |  | 55.6 µM (inactive) | 35.2 µM (inactive) | 36 µM (inactive) | 57.5 µM (inactive) | 22.6 µM (inactive) | 22 µM (inactive) | 16.4 µM (inactive) | 12.7 µM (inactive) | > 10 µM (inactive) |
| CCc1c(N=[N+]=[N-])c2ccccc2oc1=O | > 100 µM (inactive) | 36.3 µM (inactive) | > 100 µM (inactive) | > 100 µM (inactive) | > 100 µM (inactive) | 49.8 µM (inactive) | > 100 µM (inactive) | > 100 µM (inactive) | > 100 µM (inactive) | > 100 µM (inactive) | > 100 µM (inactive) |  | > 100 µM (inactive) | > 100 µM (inactive) | > 100 µM (inactive) | > 100 µM (inactive) | > 100 µM (inactive) | > 100 µM (inactive) | > 100 µM (inactive) | > 100 µM (inactive) |
| CSc1c(C#N)c(N)n(-c2ccc(Cl)cc2)c(=O)c1C#N | > 100 µM (inactive) | > 100 µM (inactive) | > 100 µM (inactive) | > 100 µM (inactive) | > 100 µM (inactive) | > 100 µM (inactive) | > 100 µM (inactive) | > 100 µM (inactive) | > 100 µM (inactive) | > 100 µM (inactive) | > 100 µM (inactive) | > 100 µM (inactive) | > 100 µM (inactive) | > 100 µM (inactive) | 21 µM (inactive) | > 100 µM (inactive) | 59.7 µM (inactive) | 27.5 µM (inactive) |  | 61.4 µM (inactive) |
| CC1CC(c2ccccc2)Nc2nc3ccccc3n21 (stereo not drawn) | > 100 µM (inactive) | > 100 µM (inactive) | > 100 µM (inactive) | > 100 µM (inactive) | > 100 µM (inactive) | > 100 µM (inactive) | > 100 µM (inactive) | > 100 µM (inactive) | > 100 µM (inactive) | > 100 µM (inactive) | > 100 µM (inactive) | > 100 µM (inactive) | > 100 µM (inactive) | > 100 µM (inactive) | > 100 µM (inactive) | > 100 µM (inactive) | > 100 µM (inactive) | > 100 µM (inactive) | > 100 µM (inactive) | > 100 µM (inactive) |
| COC(C(O)CO)C(O)C(O)C(=O)NNc1ccccc1 (stereo not drawn) | 47.5 µM (inactive) | 21.7 µM (inactive) | > 100 µM (inactive) | 9.46 µM (inactive) | 39.2 µM (inactive) | > 100 µM (inactive) | > 100 µM (inactive) | 16.5 µM (inactive) | > 100 µM (inactive) | > 100 µM (inactive) | 8.49 µM (inactive) | > 100 µM (inactive) | > 100 µM (inactive) |  | > 100 µM (inactive) | 20 µM (inactive) |  | > 100 µM (inactive) | 42.7 µM (inactive) | > 100 µM (inactive) |
| CN(C)c1ccc(/C=C2\C[C@H]3[C@@H]4CC=C5C[C@@H](N6CCCC6)CC[C@]5(C)[C@H]4CC[C@]3(C)[C@H]2O)cc1 | 0.973 µM (active) | 1.83 µM (inactive) | 0.977 µM (active) | 1.48 µM (inactive) | 2.96 µM (inactive) | 0.883 µM (active) | 3.18 µM (inactive) | 1.62 µM (inactive) | 0.973 µM (active) | 0.966 µM (active) | 1.3 µM (inactive) | 1.5 µM (inactive) | 0.938 µM (active) | 0.796 µM (active) | 2.47 µM (inactive) | 1.01 µM (active) | 0.813 µM (active) | 1.11 µM (active) |  | 1.82 µM (inactive) |
| O=P(Oc1ccccc1)(Oc1ccccc1)Oc1c[nH]c2ccccc12 | 0.103 µM (active) | 0.296 µM (active) | 12.7 µM (inactive) | 12.8 µM (inactive) | 11 µM (inactive) | 13.3 µM (inactive) | 17 µM (inactive) | 3.45 µM (inactive) | 11.4 µM (inactive) | 13.7 µM (inactive) | 13.4 µM (inactive) | 13.1 µM (inactive) | 16.2 µM (inactive) | 3.13 µM (inactive) | 1.57 µM (inactive) | 11 µM (inactive) | 9.68 µM (inactive) |  | 0.141 µM (active) | 6.53 µM (inactive) |
| COc1ccc(-c2c(/C=N/OCC(=O)O)c3sc4ccccc4n3c2/C=N/OCC(=O)O)cc1 |  | > 50 µM (inactive) | > 50 µM (inactive) | > 50 µM (inactive) | > 50 µM (inactive) | > 50 µM (inactive) | > 50 µM (inactive) | > 50 µM (inactive) | > 50 µM (inactive) | > 50 µM (inactive) | > 50 µM (inactive) | > 50 µM (inactive) | > 50 µM (inactive) | > 50 µM (inactive) | 21.8 µM (inactive) | > 50 µM (inactive) |  | > 50 µM (inactive) | > 50 µM (inactive) | > 50 µM (inactive) |
| CSCCCNC(=O)c1csc([C@@H](CSC)NC(=O)CCNC(=O)[C@@H](NC(=O)OCC(Br)(Br)Br)C(C)O)n1 (stereo partly drawn) |  | 75.5 µM (inactive) | > 100 µM (inactive) | > 100 µM (inactive) | 94.2 µM (inactive) | > 100 µM (inactive) | > 100 µM (inactive) | > 100 µM (inactive) | > 100 µM (inactive) | > 100 µM (inactive) | > 100 µM (inactive) | > 100 µM (inactive) | > 100 µM (inactive) | > 100 µM (inactive) | > 100 µM (inactive) | > 100 µM (inactive) | > 100 µM (inactive) | > 100 µM (inactive) | > 100 µM (inactive) | > 100 µM (inactive) |
| O=C1Nc2ccccc2C1(O)Cc1ccccn1 (stereo not drawn) | > 100 µM (inactive) | > 100 µM (inactive) | > 100 µM (inactive) | > 100 µM (inactive) | > 100 µM (inactive) | > 100 µM (inactive) | > 100 µM (inactive) | > 100 µM (inactive) | > 100 µM (inactive) | > 100 µM (inactive) | > 100 µM (inactive) | > 100 µM (inactive) | > 100 µM (inactive) | > 100 µM (inactive) | > 100 µM (inactive) | > 100 µM (inactive) | > 100 µM (inactive) | > 100 µM (inactive) | > 100 µM (inactive) |  |
| COc1ccc(NC(=O)CC(=O)N2N=C(c3ccccc3)C(/N=N/c3ccc(S(=O)(=O)CCOS(=O)(=O)O)cc3)C2=O)cc1 (stereo not drawn) | > 100 µM (inactive) | > 100 µM (inactive) | > 100 µM (inactive) | > 100 µM (inactive) | > 100 µM (inactive) | > 100 µM (inactive) | > 100 µM (inactive) | > 100 µM (inactive) | > 100 µM (inactive) | > 100 µM (inactive) | > 100 µM (inactive) | > 100 µM (inactive) | > 100 µM (inactive) |  | > 100 µM (inactive) | > 100 µM (inactive) | > 100 µM (inactive) | > 100 µM (inactive) | > 100 µM (inactive) | > 100 µM (inactive) |
| CN1CC[C@]2(c3cccc(O)c3)CC(=O)/C(=C/c3ccc(Cl)c(Cl)c3)[C@@H]1C2 | 0.262 µM (active) | 1.55 µM (inactive) | 1.55 µM (inactive) | 1.28 µM (inactive) | 1.29 µM (inactive) | 3.05 µM (inactive) | 1.75 µM (inactive) | 1.54 µM (inactive) | 1.15 µM (inactive) | 0.427 µM (active) | 1.14 µM (inactive) | 1.75 µM (inactive) | 1.45 µM (inactive) | 1.47 µM (inactive) | 1.22 µM (inactive) | 0.552 µM (active) | 2.34 µM (inactive) |  | 0.337 µM (active) | 0.273 µM (active) |
